Data published in PMC5408612, “Biophysical studies of cholesterol effects on chromatin” (Journal of Lipid Research, 2017).

Target: T1, long chromatin fibers (chicken histone octamer on 177 bp x 36 array of 601 DNA) (Gallus gallus, UniProt P02263+P0C1H3+P62801+P84229)
T1 construct: gene H3-I
Settings: labelled compound; 0.5 and 1 uM; on ice; with or without 4.5 mM MgCl2; histone-DNA complex, site on histone versus DNA not resolved

CC1=CC(C)=[N+]2C1=C(CC[C@@H](C)[C@H]1CC[C@H]3[C@@H]4CC=C5C[C@@H](O)CC[C@]5(C)[C@H]4CC[C@]13C)c1c(C)cc(C)n1[B-]2(F)F [TopFluor cholesterol, 23-(dipyrrometheneborondifluoride)-24-norcholesterol]
fluorescence co-migration in native agarose gel (EMSA), pelleting assay: cholesterol bound avidly to open or compacted chromatin fibers
